Values quoted from earlier work as cited in patent US6653351B2, “Adjuvant chemotherapy for anaplastic gliomas” (priority 2001, dated 2003).
Structures can show the parent of a compound that is named as a salt.

Conditions: in vivo

Row | Structure (SMILES) | crossing of the blood brain barrier
1 | CC[C@]1(O)C[C@H]2CN(CCc3c([nH]c4ccccc34)[C@@](C(=O)OC)(c3cc4c(cc3OC)N(C=O)[C@H]3[C@@](O)(C(=O)OC)[C@H](OC(C)=O)[C@]5(CC)C=CCN6CC[C@]43[C@@H]65)C2)C1 [Vincristine, vincaleukoblastine, a 22-oxo-, sulfate (1:1) (salt)] | does not appear to cross the blood brain barrier
2 | O=NN(CCCl)C(=O)NC1CCCCC1 [Lomustine, 1-(2-chloroethyl)-3-cyclohexyl-1-nitrosourea] | crosses the blood brain barrier
